In patent publication US20250144223A1, “PROTEIN DEGRADATION COMPOUND BASED ON NAMPT TARGET PROTEIN AND APPLICATION THEREOF” (GLUETACS THERAPEUTICS (SHANGHAI) CO., LTD., priority 2021, published 2025):

System: Jurkat
Assay: CellTiter-Glo Luminescent Cell Viability Assay, half inhibitory concentration (IC50) on tumor cell proliferation
Type: cell-based
Settings: Homo sapiens, Jurkat cells, 72 h treatment
Method: The tumor cells used herein were cultured in a cell culture medium at 37° C. in an incubator with 5% CO2, where the cell culture medium was supplemented with 10% FBS, as well as penicillin at a final concentration of 100 U/mL and streptomycin at a final concentration of 100 μg/mL. Prior to experimentation, all cells used were identified as correct cells by STR cells, and were negative for mycoplasma through routine testing.
IC50 values of the compounds of the present disclosure (including the compounds in Table 1 and compounds of examples) were measured using the CellTiter-Glo® Luminescent Cell Viability Assay kit from Promega Corporation. Assay details are as follows: Cells were seeded in 100 μL RPMI1640 medium containing serum at a density of 20,000 cells/well. After 24 h, the inoculated cells were treated with the compounds of the present disclosure which were serially diluted. After the cells were treated with the compounds of the present disclosure for 72 h, the CellTiter-Glo® reagent was added to the culture medium for cell viability assessment according to the instructions provided with the kit. DMSO served as the negative control, and FK866 inhibitor was used as the positive control, both treated with the same protocol as the compounds of the present disclosure. The growth inhibition of the compounds of the present disclosure on cells was plotted by Prism Graphpad software, and the IC50 values of the compounds of the present disclosure were calculated therefrom.

Row | IC50 [nM] | Structure (SMILES)
1 | 3 | O=C(/C=C/c1cccnc1)NCCCCC1CCN(C(=O)c2ccc(N3CCNCC3)cc2)CC1 [SIAIS630006, (E)-N-(4-(1-(4-(piperazin-1-yl)benzoyl)piperidin-4-yl)butyl)-3-(pyridin-3-yl)acrylamide]
2 | 109 | Cc1ncsc1-c1ccc(CNC(=O)[C@@H]2C[C@@H](O)CN2C(=O)[C@@H](NC(=O)CCCCC(=O)N2CCN(c3ccc(C(=O)N4CCC(CCCCNC(=O)/C=C/c5cccnc5)CC4)cc3)CC2)C(C)(C)C)cc1 [SIAIS630007, (2S,4R)-1-((S)-3,3-dimethyl-2-(6-oxo-6-(4-(4-(4-(4-((E)-3-(pyridin-3-yl)acrylamido)butyl)piperidine-1-carbonyl)phenyl)piperazin-1-yl)hexanamido)butanoyl)-4-hydroxy-N-(4-(4-methylthiazol-5-yl)benzyl)pyrrolidine-2-carboxamide]
3 | 96.2 | Cc1ncsc1-c1ccc(CNC(=O)[C@@H]2C[C@@H](O)CN2C(=O)[C@@H](NC(=O)CCCCCCCCCCCCCCC(=O)N2CCN(c3ccc(C(=O)N4CCC(CCCCNC(=O)/C=C/c5cccnc5)CC4)cc3)CC2)C(C)(C)C)cc1 [SIAIS630008, (2S,4R)-1-((S)-3,3-dimethyl-2-(16-oxo-16-(4-(4-(4-(4-((E)-3-(pyridin-3-yl)acrylamido)butyl)piperidine-1-carbonyl)phenyl)piperazin-1-yl)hexadecanamido)butanoyl)-4-hydroxy-N-(4-(4-methylthiazol-5-yl)benzyl)pyrrolidine-2-carboxamide]
4 | 2.29 | O=C(/C=C/c1cccnc1)NCCCCC1CCN(C(=O)c2ccc(N3CCN(C(=O)CCNc4cccc5c4C(=O)N(C4CCC(=O)NC4=O)C5=O)CC3)cc2)CC1 (stereo not drawn) [SIAIS630009, (E)-N-(4-(1-(4-(4-(3-((2-(2,6-dioxopiperidin-3-yl)-1,3-dioxoisoindolin-4-yl)amino)propanoyl)piperazin-1-yl)benzoyl)piperidin-4-yl)butyl)-3-(pyridin-3-yl)acrylamide]
5 | 0.351 | O=C(/C=C/c1cccnc1)NCCCCC1CCN(C(=O)c2ccc(N3CCN(C(=O)CCCNc4cccc5c4C(=O)N(C4CCC(=O)NC4=O)C5=O)CC3)cc2)CC1 (stereo not drawn) [SIAIS630010, (E)-N-(4-(1-(4-(4-(4-((2-(2,6-dioxopiperidin-3-yl)-1,3-dioxoisoindolin-4-yl)amino)butanoyl)piperazin-1-yl)benzoyl)piperidin-4-yl)butyl)-3-(pyridin-3-yl)acrylamide]
6 | 2.85 | O=C(/C=C/c1cccnc1)NCCCCC1CCN(C(=O)c2ccc(N3CCN(C(=O)CCCCNc4cccc5c4C(=O)N(C4CCC(=O)NC4=O)C5=O)CC3)cc2)CC1 (stereo not drawn) [SIAIS630011, (E)-N-(4-(1-(4-(4-(5-((2-(2,6-dioxopiperidin-3-yl)-1,3-dioxoisoindolin-4-yl)amino)pentanoyl)piperazin-1-yl)benzoyl)piperidin-4-yl)butyl)-3-(pyridin-3-yl)acrylamide]
7 | 2.82 | O=C(/C=C/c1cccnc1)NCCCCC1CCN(C(=O)c2ccc(N3CCN(C(=O)CCCCCCNc4cccc5c4C(=O)N(C4CCC(=O)NC4=O)C5=O)CC3)cc2)CC1 (stereo not drawn) [SIAIS630012, (E)-N-(4-(1-(4-(4-(7-((2-(2,6-dioxopiperidin-3-yl)-1,3-dioxoisoindolin-4-yl)amino)heptanoyl)piperazin-1-yl)benzoyl)piperidin-4-yl)butyl)-3-(pyridin-3-yl)acrylamide]
8 | 190 | O=C(/C=C/c1cccnc1)NCCCCC1CCN(C(=O)c2ccc(N3CCN(C(=O)CSc4cccc5c4CN(C4CCC(=O)NC4=O)C5=O)CC3)cc2)CC1 (stereo not drawn) [SIAIS630013, (E)-N-(4-(1-(4-(4-(2-((2-(2,6-dioxopiperidin-3-yl)-1-oxoisoindolin-4-yl)thio)acetyl)piperazin-1-yl)benzoyl)piperidin-4-yl)butyl)-3-(pyridin-3-yl)acrylamide]
9 | 1.99 | O=C(/C=C/c1cccnc1)NCCCCC1CCN(C(=O)c2ccc(N3CCN(C(=O)CCCCSc4cccc5c4CN(C4CCC(=O)NC4=O)C5=O)CC3)cc2)CC1 (stereo not drawn) [SIAIS630014, (E)-N-(4-(1-(4-(4-(5-((2-(2,6-dioxopiperidin-3-yl)-1-oxoisoindolin-4-yl)thio)pentanoyl)piperazin-1-yl)benzoyl)piperidin-4-yl)butyl)-3-(pyridin-3-yl)acrylamide]
10 | 849 | O=C(/C=C/c1cccnc1)NCCCCN1CCN(C(=O)c2ccc(N3CCNCC3)cc2)CC1 [SIAIS630020, (E)-N-(4-(4-(4-(piperazin-1-yl)benzoyl)piperazin-1-yl)butyl)-3-(pyridin-3-yl)acrylamide]
11 | 1.14 | O=C(/C=C/c1cccnc1)NCCCCC1CCN(C(=O)c2ccc(N3CCN(C(=O)CCCCCSc4cccc5c4CN(C4CCC(=O)NC4=O)C5=O)CC3)cc2)CC1 (stereo not drawn) [SIAIS630037, (E)-N-(4-(1-(4-(4-(6-((2-(2,6-dioxopiperidin-3-yl)-1-oxoisoindolin-4-yl)thio)hexanoyl)piperazin-1-yl)benzoyl)piperidin-4-yl)butyl)-3-(pyridin-3-yl)acrylamide]
12 | 24.7 | O=C(/C=C/c1cccnc1)NCCCCC1CCN(C(=O)c2ccc(N3CCN(C(=O)COCCSc4cccc5c4CN(C4CCC(=O)NC4=O)C5=O)CC3)cc2)CC1 (stereo not drawn) [SIAIS630038, (E)-N-(4-(1-(4-(4-(2-(2-((2-(2,6-dioxopiperidin-3-yl)-1-oxoisoindolin-4-yl)thio)ethoxy)acetyl)piperazin-1-yl)benzoyl)piperidin-4-yl)butyl)-3-(pyridin-3-yl)acrylamide]
13 | 7.96 | O=C(/C=C/c1cccnc1)NCCCCC1CCN(C(=O)c2ccc(N3CCN(C(=O)COCCOCCSc4cccc5c4CN(C4CCC(=O)NC4=O)C5=O)CC3)cc2)CC1 (stereo not drawn) [SIAIS630039, (E)-N-(4-(1-(4-(4-(2-(2-(2-((2-(2,6-dioxopiperidin-3-yl)-1-oxoisoindolin-4-yl)thio)ethoxy)ethoxy)acetyl)piperazin-1-yl)benzoyl)piperidin-4-yl)butyl)-3-(pyridin-3-yl)acrylamide]
14 | 2.99 | O=C(/C=C/c1cccnc1)NCCCCC1CCN(C(=O)c2ccc(N3CCN(CCCCC#Cc4cccc5c4CN(C4CCC(=O)NC4=O)C5=O)CC3)cc2)CC1 (stereo not drawn) [SIAIS630119, (E)-N-(4-(1-(4-(4-(6-(2-(2,6-dioxopiperidin-3-yl)-1-oxoisoindolin-4-yl)hex-5-yn-1-yl)piperazin-1-yl)benzoyl)piperidin-4-yl)butyl)-3-(pyridin-3-yl)acrylamide]
15 | 28.3 | O=C(/C=C/c1cccnc1)NCCCCC1CCN(C(=O)c2ccc(N3CCN(CCCCCCCC#Cc4cccc5c4CN(C4CCC(=O)NC4=O)C5=O)CC3)cc2)CC1 (stereo not drawn) [SIAIS630122, (E)-N-(4-(1-(4-(4-(9-(2-(2,6-dioxopiperidin-3-yl)-1-oxoisoindolin-4-yl)non-8-yn-1-yl)piperazin-1-yl)benzoyl)piperidin-4-yl)butyl)-3-(pyridin-3-yl)acrylamide]
16 | 2.52 | O=C(/C=C/c1cccnc1)NCCCCC1CCN(C(=O)c2ccc(N3CCN(CCCCSc4cccc5c4CN(C4CCC(=O)NC4=O)C5=O)CC3)cc2)CC1 (stereo not drawn) [SIAIS630123, (E)-N-(4-(1-(4-(4-(4-((2-(2,6-dioxopiperidin-3-yl)-1-oxoisoindolin-4-yl)thio)butyl)piperazin-1-yl)benzoyl)piperidin-4-yl)butyl)-3-(pyridin-3-yl)acrylamide]
17 | 2.93 | O=C(/C=C/c1cccnc1)NCCCCC1CCN(C(=O)c2ccc(N3CCN(CCCC#Cc4cccc5c4CN(C4CCC(=O)NC4=O)C5=O)CC3)cc2)CC1 (stereo not drawn) [SIAIS630129, (E)-N-(4-(1-(4-(4-(5-(2-(2,6-dioxopiperidin-3-yl)-1-oxoisoindolin-4-yl)pent-4-yn-1-yl)piperazin-1-yl)benzoyl)piperidin-4-yl)butyl)-3-(pyridin-3-yl)acrylamide]
18 | 24.2 | O=C(/C=C/c1cccnc1)NCCCCC1CCN(C(=O)c2ccc(N3CCN(CCSc4cccc5c4CN(C4CCC(=O)NC4=O)C5=O)CC3)cc2)CC1 (stereo not drawn) [SIAIS630130, (E)-N-(4-(1-(4-(4-(2-((2-(2,6-dioxopiperidin-3-yl)-1-oxoisoindolin-4-yl)thio)ethyl)piperazin-1-yl)benzoyl)piperidin-4-yl)butyl)-3-(pyridin-3-yl)acrylamide]
19 | 4.38 | O=C(/C=C/c1cccnc1)NCCCCC1CCN(C(=O)c2ccc(N3CCN(CCCSc4cccc5c4CN(C4CCC(=O)NC4=O)C5=O)CC3)cc2)CC1 (stereo not drawn) [SIAIS630131, (E)-N-(4-(1-(4-(4-(3-((2-(2,6-dioxopiperidin-3-yl)-1-oxoisoindolin-4-yl)thio)propyl)piperazin-1-yl)benzoyl)piperidin-4-yl)butyl)-3-(pyridin-3-yl)acrylamide]
20 | 6.29 | O=C(/C=C/c1cccnc1)NCCCCC1CCN(C(=O)c2ccc(N3CCN(CCCCCSc4cccc5c4CN(C4CCC(=O)NC4=O)C5=O)CC3)cc2)CC1 (stereo not drawn) [SIAIS630132, (E)-N-(4-(1-(4-(4-(5-((2-(2,6-dioxopiperidin-3-yl)-1-oxoisoindolin-4-yl)thio)pentyl)piperazin-1-yl)benzoyl)piperidin-4-yl)butyl)-3-(pyridin-3-yl)acrylamide]
21 | 6.37 | O=C(/C=C/c1cccnc1)NCCCCC1CCN(C(=O)c2ccc(N3CCN(CCCCCCSc4cccc5c4CN(C4CCC(=O)NC4=O)C5=O)CC3)cc2)CC1 (stereo not drawn) [SIAIS630133, (E)-N-(4-(1-(4-(4-(6-((2-(2,6-dioxopiperidin-3-yl)-1-oxoisoindolin-4-yl)thio)hexyl)piperazin-1-yl)benzoyl)piperidin-4-yl)butyl)-3-(pyridin-3-yl)acrylamide]
